Assay [1] deals with Notch signalling in CHO-N2 (N27#11) cells expressing full length human Notch2. As to the kind of experiment: Antagonist assay of Notch signalling from Delta-coated Dynabeads (N27#11 luciferase reporter). The following applies: soluble protein, N27#11 reporter cells; for inhibition of Notch signalling from Delta beads compared to control: IgG4Fc as control. Type of assay: cell-based. Here is the method: Fc tagged Notch signalling modulators were immobilised on Streptavidin-Dynabeads (CELLection Biotin Binder Dynabeads [Cat. No. 115.21] at 4.0×10^8 beads/ml from Dynal (UK) Ltd; “beads”) in combination with biotinylated α-IgG-4 (clone JDC14 at 0.5 mg/ml from Pharmingen [Cat. No. 555879]) as follows:
A volume of Dynabeads beads corresponding to the total number required was removed from a stock of beads at 4.0×10^8 beads/ml. This was washed twice with 1 ml of PBS, and resuspended in a final volume of 100 μl of PBS containing a biotinylated anti-IgG4 antibody (clone JDC14 at 0.5 mg/ml from Pharmingen [Cat. No. 555879]) in a sterile Eppendorf tube and placed on shaker at room temperature for 30 minutes. The amount of biotinylated anti-IgG4 antibody needed to coat the beads was calculated relative to the fact that 1×10^7 streptavidin Dynabeads bind a maximum of 2 μg of antibody.
After coating the beads with antibody they were washed 3 times with 1 ml of PBS and finally resuspended in mDelta1-IgG4Fc protein diluted in PBS. Beads were coated in a solution of […] protein (usually 5 μg of mDelta1-IgG4Fc protein was added per 10^7 beads to be coated) and the ligand was allowed to bind to the beads in a 1 ml volume for 2 h at room temperature (or 4° C. overnight) on a rotary shaker to keep the beads in suspension. […]
To set up the bead antagonist assay, N27#11 cells (T80 flask) were removed using 0.02% EDTA solution (Sigma), spun down and resuspended in 10 ml DMEM plus 10%(HI) FCS plus glutamine plus P/S. Ten μl of cells were counted and the cell density was adjusted to 2.0×10^5 cells/ml with fresh DMEM plus 10%(HI) FCS plus glutamine plus P/S. The reporter cells were plated out at 100 μl per well of a 96-well plate (i.e. 2×10^4 cells per well) and were placed in an incubator to settle down for at least 30 minutes. […]
The following day 150 μl of supernatant was then removed from all the wells, 100 μl of SteadyGlo™ luciferase assay reagent (Promega) was added and the resulting mixture left at room temperature for 5 minutes. […] Luminescence was then read in a TopCount™ (Packard) counter. […]

Assay [2] has as its system activated human CD4+ T cells. Description: Cytokine production (ELISA) by human CD4+ T cells stimulated with anti-CD3/CD28 beads and Delta1 beads, with added soluble protein. Particulars: increasing amounts of soluble protein in culture medium, 3 days. The format is cell-based. How it is done: M450 Streptavidin Dynabead™ magnetic beads (Dynal, USA) were coated with an anti-human-IgG4 biotinylated monoclonal antibody (BD Bioscience, 555879) by rotating them in the presence of the antibody for 30 minutes at room temperature. Beads were washed three times with PBS (1 ml). They were further incubated with hDelta1-hIgG4 (see Example 1 above) for 2 hours at room temperature and then washed three times with PBS (1 ml).
Human peripheral blood mononuclear cells (PBMC) were purified from blood using Ficoll-Paque separation medium (Pharmacia). Briefly, 28 ml of blood were overlaid on 21 ml of Ficoll-Paque separation medium and centrifuged at 18-20° C. for 40 minutes at 400 g. PBMC were recovered from the interface and washed 3 times before use for CD4+ T cell purification.
The CD4+ T cells were incubated in triplicates in a 96-well-plate (flat bottom) at 10^5 CD4/well/200 μl in RPMI medium containing 10% FCS, glutamine, penicillin, streptomycin and β2-mercaptoethanol.
Cytokine production was induced by stimulating the cells with anti-CD3/CD28 T cell expander beads from Dynal at a 1:1 ratio (bead/cell) in the presence of beads coated with hDelta1-IgG4Fc fusion protein (Example 1 above) at a 5:1 ratio (beads/cell). In some wells, increasing amounts of soluble hdelta1-IgG4Fc fusion protein were also added.
The supernatants were removed after 3 days of incubation at 37° C./5% CO2/humidified atmosphere and cytokine production was evaluated by ELISA using Pharmingen kits OptEIA Set human IL10 (catalog No. 555157), OptEIA Set human IL-5 (catalog No. 555202) for IL-10 and IL-5 respectively according to the manufacturer's instructions.
Human peripheral blood mononuclear cells (PBMC) were purified from blood using Ficoll-Paque separation medium (Pharmacia). […]
The supernatants were removed after 3 days of incubation at 37° C./5% CO2/humidified atmosphere and cytokine production was evaluated by ELISA using Pharmingen kits OptEIA Set human IL10 (Catalog No. 555157), OptEIA Set human IL-5 (Catalog No. 555202) for IL-10 and IL-5 respectively according to the manufacturer's instructions. […]
Background: In an ELISA, binding on a coated surface is turned into a signal by an enzyme label.

For “hDelta1-IgG4Fc: fusion protein comprising the extracellular domain of human Delta1 fused to the Fc domain of human IgG4 (SEQ ID NO: 5)”, the “inhibition of Notch signalling from Delta beads compared to control” value in assay [1] is “significant inhibition compared to control”. Also, in assay [2], the “effect of added soluble protein on the IL-10 enhancement by bead-immobilised Delta1” value is listed as “inhibited”.
Take “hJagged1EGF1&2-IgG4Fc: human jagged1 sequence up to the end of EGF2 (leader, amino terminal, DSL, EGF1+2) fused to the Fc domain of human IgG4 (SEQ ID NO: 10)”: the “inhibition of Notch signalling from Delta beads compared to control” value in assay [1] was “significant inhibition compared to control”. The “inhibition of Notch signalling from Delta beads, compared with hDelta1-IgG4Fc” value in assay [1] (Delta-coated Dynabeads) is on record as “substantially the same inhibition of Notch signalling”. Also, in assay [2], the “effect of added soluble protein on the IL-10 enhancement by bead-immobilised Delta1” value is recorded as “inhibited”.

The record behind these values is patent US20050137130A1, “Medical treatment” (priority 2001, published 2005).
